According to ChEMBL document CHEMBL3046228, “Synthesis of new bicyclo[4.1.0]heptane-2,4-dione derivatives and their herbicidal activity” (J Pestic Sci, 2007):

Legend:
Setaria faberi = assay: Herbicidal activity against Setaria faberi (Giant Foxtail) assessed as induction of plant damage applied through foliar spraying; type: functional
Zea mays = assay: Phytotoxicity against Zea mays (maize) assessed as induction of plant damage applied through foliar spraying; type: organism-based; conditions: in vivo, other
Abutilon theophrasti = assay: Herbicidal activity against Abutilon theophrasti (velvetleaf) assessed as induction of plant damage applied through foliar spraying; type: functional
Amaranthus retroflexus = assay: Herbicidal activity against Amaranthus retroflexus assessed as induction of plant damage applied through foliar spraying; type: functional
Digitaria sanguinalis = assay: Herbicidal activity against Digitaria sanguinalis (hairy crabgrass) assessed as induction of plant damage applied through foliar spraying; type: functional

O=C1CCCC(=O)C1C(=O)c1ccc(Cl)cc1[N+](=O)[O-]
ED80 (Setaria faberi): 500 gAi/ha | ED0 (Zea mays): 500 gAi/ha | ED80 (Abutilon theophrasti): 31 gAi/ha | ED80 (Amaranthus retroflexus): 125 gAi/ha | ED80 (Digitaria sanguinalis): 250 gAi/ha

CC1CCC(=O)C(C(=O)c2ccc(Cl)cc2[N+](=O)[O-])C1=O (stereo not given)
ED0 (Zea mays): 125 gAi/ha | ED80 (Abutilon theophrasti): 63 gAi/ha | ED80 (Amaranthus retroflexus): 250 gAi/ha | ED80 (Digitaria sanguinalis): 63 gAi/ha

CC1CC(=O)C(C(=O)c2ccc(Cl)cc2[N+](=O)[O-])C(=O)C1 (stereo not given)
ED80 (Setaria faberi): 16 gAi/ha | ED0 (Zea mays): 63 gAi/ha | ED80 (Abutilon theophrasti): 125 gAi/ha | ED80 (Amaranthus retroflexus): 125 gAi/ha | ED80 (Digitaria sanguinalis): 31 gAi/ha

CCCC1CC(=O)C(C(=O)c2ccc(Cl)cc2[N+](=O)[O-])C(=O)C1 (stereo not given)
ED0 (Zea mays): 125 gAi/ha | ED80 (Abutilon theophrasti): >2000 gAi/ha | ED80 (Amaranthus retroflexus): 2000 gAi/ha | ED80 (Digitaria sanguinalis): 500 gAi/ha

CCCCC1CC(=O)C(C(=O)c2ccc(Cl)cc2[N+](=O)[O-])C(=O)C1 (stereo not given)
ED0 (Zea mays): 1000 gAi/ha | ED80 (Abutilon theophrasti): 500 gAi/ha | ED80 (Amaranthus retroflexus): >2000 gAi/ha | ED80 (Digitaria sanguinalis): >2000 gAi/ha

CSCC1CC(=O)C(C(=O)c2ccc(Cl)cc2[N+](=O)[O-])C(=O)C1 (stereo not given)
ED80 (Setaria faberi): 125 gAi/ha | ED0 (Zea mays): 125 gAi/ha | ED80 (Abutilon theophrasti): 63 gAi/ha | ED80 (Amaranthus retroflexus): 500 gAi/ha | ED80 (Digitaria sanguinalis): 250 gAi/ha

COCC1CC(=O)C(C(=O)c2ccc(Cl)cc2[N+](=O)[O-])C(=O)C1 (stereo not given)
ED0 (Zea mays): 125 gAi/ha | ED80 (Abutilon theophrasti): 125 gAi/ha | ED80 (Amaranthus retroflexus): 125 gAi/ha | ED80 (Digitaria sanguinalis): 500 gAi/ha

CC1(C)CC(=O)C(C(=O)c2ccc(Cl)cc2[N+](=O)[O-])C(=O)C1
ED0 (Zea mays): 500 gAi/ha | ED80 (Abutilon theophrasti): 125 gAi/ha | ED80 (Amaranthus retroflexus): 2000 gAi/ha | ED80 (Digitaria sanguinalis): 250 gAi/ha

CC1CC(=O)C(C(=O)c2ccc(Cl)cc2[N+](=O)[O-])C(=O)C1C (stereo not given)
ED80 (Setaria faberi): 31 gAi/ha | ED0 (Zea mays): 125 gAi/ha | ED80 (Abutilon theophrasti): 125 gAi/ha | ED80 (Amaranthus retroflexus): 500 gAi/ha | ED80 (Digitaria sanguinalis): 31 gAi/ha

O=C1CC2CCCCC2C(=O)C1C(=O)c1ccc(Cl)cc1[N+](=O)[O-] (stereo not given)
ED80 (Setaria faberi): 2000 gAi/ha | ED0 (Zea mays): 500 gAi/ha | ED80 (Abutilon theophrasti): 500 gAi/ha | ED80 (Amaranthus retroflexus): 2000 gAi/ha | ED80 (Digitaria sanguinalis): 500 gAi/ha

O=C1CC2CCCC2C(=O)C1C(=O)c1ccc(Cl)cc1[N+](=O)[O-] (stereo not given)
ED80 (Setaria faberi): 500 gAi/ha | ED0 (Zea mays): 63 gAi/ha | ED80 (Abutilon theophrasti): 500 gAi/ha | ED80 (Amaranthus retroflexus): 500 gAi/ha | ED80 (Digitaria sanguinalis): 250 gAi/ha

O=C1C[C@H]2C[C@H]2C(=O)C1C(=O)c1ccc(C(F)(F)F)cc1[N+](=O)[O-] (relative stereo)
ED80 (Setaria faberi): 63 gAi/ha | ED0 (Zea mays): 31 gAi/ha | ED80 (Abutilon theophrasti): 16 gAi/ha | ED80 (Amaranthus retroflexus): 63 gAi/ha | ED80 (Digitaria sanguinalis): 63 gAi/ha

CS(=O)(=O)c1ccc(C(=O)C2C(=O)C[C@H]3C[C@H]3C2=O)c(Cl)c1 (relative stereo)
ED80 (Setaria faberi): 63 gAi/ha | ED0 (Zea mays): 125 gAi/ha | ED80 (Abutilon theophrasti): 16 gAi/ha | ED80 (Amaranthus retroflexus): 31 gAi/ha | ED80 (Digitaria sanguinalis): 125 gAi/ha

Cc1cc(S(C)(=O)=O)ccc1C(=O)C1C(=O)C[C@H]2C[C@H]2C1=O (relative stereo)
ED80 (Setaria faberi): 250 gAi/ha | ED0 (Zea mays): 250 gAi/ha | ED80 (Abutilon theophrasti): 16 gAi/ha | ED80 (Amaranthus retroflexus): 63 gAi/ha | ED80 (Digitaria sanguinalis): 250 gAi/ha

O=C1C[C@H]2C[C@H]2C(=O)C1C(=O)c1ccc(Cl)cc1[N+](=O)[O-] (relative stereo)
ED80 (Setaria faberi): 125 gAi/ha | ED0 (Zea mays): 16 gAi/ha | ED80 (Abutilon theophrasti): 16 gAi/ha | ED80 (Amaranthus retroflexus): 63 gAi/ha | ED80 (Digitaria sanguinalis): 63 gAi/ha

COc1ccc(C(=O)C2C(=O)C[C@H]3C[C@H]3C2=O)c([N+](=O)[O-])c1 (relative stereo)
ED80 (Setaria faberi): 125 gAi/ha | ED0 (Zea mays): 31 gAi/ha | ED80 (Abutilon theophrasti): 125 gAi/ha | ED80 (Amaranthus retroflexus): 500 gAi/ha | ED80 (Digitaria sanguinalis): 125 gAi/ha

CSc1ccc(C(=O)C2C(=O)C[C@H]3C[C@H]3C2=O)c([N+](=O)[O-])c1 (relative stereo)
ED80 (Setaria faberi): 250 gAi/ha | ED0 (Zea mays): 125 gAi/ha | ED80 (Abutilon theophrasti): 16 gAi/ha | ED80 (Amaranthus retroflexus): 31 gAi/ha | ED80 (Digitaria sanguinalis): 63 gAi/ha

CS(=O)(=O)c1ccc(C(=O)C2C(=O)C[C@H]3C[C@H]3C2=O)c([N+](=O)[O-])c1 (relative stereo)
ED80 (Setaria faberi): 250 gAi/ha | ED0 (Zea mays): 250 gAi/ha | ED80 (Abutilon theophrasti): 16 gAi/ha | ED80 (Amaranthus retroflexus): 63 gAi/ha | ED80 (Digitaria sanguinalis): 125 gAi/ha

CS(=O)(=O)c1ccc(C(=O)C2C(=O)CCCC2=O)c(Cl)c1 [SULCOTRIONE]
ED80 (Setaria faberi): 250 gAi/ha | ED0 (Zea mays): 250 gAi/ha | ED80 (Abutilon theophrasti): 16 gAi/ha | ED80 (Amaranthus retroflexus): 250 gAi/ha | ED80 (Digitaria sanguinalis): 125 gAi/ha
